What all share (type): cell-based
The subject of one experiment is S. aureus MP-12. Description: microbe, parasite or virus in culture. To be noted: Staphylococcus aureus, MP12, read-out: MIC S. aureus MP-12.
A further experiment deals with E. coli MP-4. Nature of the experiment: MIC determination by CLSI broth dilution, E. coli MP-4. The settings on record: Escherichia coli, MP4, CLSI broth dilution; strain MP-4. (Broth dilution looks for growth in wells or tubes with falling amounts of substance.)
The test system of the next experiment is K. pneumoniae MP-648. Nature of the experiment: MIC determination by CLSI broth dilution, K. pneumoniae MP-648. To be noted: Klebsiella pneumoniae, MP648, CLSI broth dilution; strain MP-648.
The test system of a further experiment is P. aeruginosa MP-3. Description: MIC determination by CLSI broth dilution, P. aeruginosa MP-3. To be noted: Pseudomonas aeruginosa, MP3, strain MP-3.
The subject of the next experiment is A. baumannii MP-15. Description: MIC determination by CLSI broth dilution, A. baumannii MP-15. To be noted: Acinetobacter baumannii, MP15, strain MP-15, read-out: MIC A. baumanii MP-15.
A further experiment concerns K. pneumoniae MP-546. Description: MIC determination by CLSI broth dilution, K. pneumoniae MP-546. To be noted: Klebsiella pneumoniae, MP546, CLSI broth dilution; strain MP-546.

In brackets after ≈: the same amount, converted by molar mass. A value given as a limit tells only on which side of the number the result lay.

On to `CO[C@]1(C)C[C@@H](C)CN(C)[C@H]([C@H](O)[C@@H](O)CO)COC(=O)C(C)(C)C(=O)[C@H](C)[C@H]1O[C@@H]1O[C@H](C)C[C@H](N(C)C)[C@H]1O` [Compound 201], for which the MIC in the experiment on S. aureus MP-12 was more than 32 µg/mL; against E. coli MP-4, 4 to 32 µg/mL (≈ 6.77 to 54.2 µM); against K. pneumoniae MP-648, more than 32 µg/mL; with P. aeruginosa MP-3, more than 32 µg/mL; in the experiment with A. baumannii MP-15 it was more than 32 µg/mL.

With `CO[C@]1(C)C[C@@H](C)CN(C)[C@H](/C=C/CN2Cc3cccnc3C2)COC(=O)C(C)(C)C(=O)[C@H](C)[C@H]1O[C@@H]1O[C@H](C)C[C@H](N(C)C)[C@H]1O` [Compound 152], the MIC in the experiment with S. aureus MP-12 was 4 to 32 µg/mL (≈ 6.07 to 48.6 µM); against E. coli MP-4 it was less than 4 µg/mL; with K. pneumoniae MP-648, 4 to 32 µg/mL (≈ 6.07 to 48.6 µM); with P. aeruginosa MP-3, more than 32 µg/mL; with A. baumannii MP-15, more than 32 µg/mL.

As to `CCCN(CCC)CC[C@@](C)(O)[C@@H]1COC(=O)C(C)(C)C(=O)[C@H](C)[C@@H](O[C@@H]2O[C@H](C)C[C@H](N(C)C)[C@H]2O)[C@](C)(OC)C[C@@H](C)CN1C` [Compound 229], the MIC with S. aureus MP-12 was 4 to 32 µg/mL (≈ 5.95 to 47.6 µM); in the experiment with E. coli MP-4 it was 4 to 32 µg/mL (≈ 5.95 to 47.6 µM); in the experiment on K. pneumoniae MP-648, more than 32 µg/mL; against P. aeruginosa MP-3, more than 32 µg/mL; with A. baumannii MP-15, more than 32 µg/mL.

As to `CCN1CCN(C[C@H]2COC(=O)C(C)(C)C(=O)[C@H](C)[C@@H](O[C@@H]3O[C@H](C)C[C@H](N(C)C)[C@H]3O)[C@](C)(OC)C[C@@H](C)CN2C)CC1` [Compound 155, (3S,6R,8R,9R,10R)-9-(((2S,3R,4S,6R)-4-(dimethylamino)-3-hydroxy-6-methyltetrahydro-2H-pyran-2-yl)oxy)-3-((4-ethylpiperazin-1-yl)methyl)-8-methoxy-4,6,8,10,12,12-hexamethyl-1-oxa-4-azacyclotridecane-11,13-dione], the MIC is 4 to 32 µg/mL (≈ 6.38 to 51 µM) in the experiment with S. aureus MP-12; less than 4 µg/mL against E. coli MP-4; 4 to 32 µg/mL (≈ 6.38 to 51 µM) with K. pneumoniae MP-648; more than 32 µg/mL against P. aeruginosa MP-3; more than 32 µg/mL with A. baumannii MP-15.

Turning to `CCN1C[C@H](C)C[C@@](C)(OC)[C@H](O[C@@H]2O[C@H](C)C[C@H](N(C)C)[C@H]2O)[C@@H](C)C(=O)C(C)(C)C(=O)OC[C@H]1C=C1CCN(C2Cc3ccccc3C2)CC1` [Compound 191], the MIC with S. aureus MP-12 is less than 4 µg/mL; against E. coli MP-4 it was less than 4 µg/mL; with K. pneumoniae MP-648, less than 4 µg/mL; against P. aeruginosa MP-3, more than 32 µg/mL; in the experiment with A. baumannii MP-15 it was 4 to 32 µg/mL (≈ 5.51 to 44.1 µM).

Take `CO[C@]1(C)C[C@@H](C)CN(C)[C@](C)(C[C@H]2C[C@H](N(C)C(C)C)C2)COC(=O)C(C)(C)C(=O)[C@H](C)[C@H]1O[C@@H]1O[C@H](C)C[C@H](N(C)C)[C@H]1O` [Compound 198]: the MIC in the experiment on S. aureus MP-12 is 4 to 32 µg/mL (≈ 6.12 to 48.9 µM); against E. coli MP-4 it was 4 to 32 µg/mL (≈ 6.12 to 48.9 µM); in the experiment on K. pneumoniae MP-648, more than 32 µg/mL; against P. aeruginosa MP-3, more than 32 µg/mL; in the experiment with A. baumannii MP-15 it was more than 32 µg/mL.

Regarding `CCN1C[C@H](C)C[C@@](C)(OC)[C@H](O[C@@H]2O[C@H](C)C[C@H](N(C)C)[C@H]2O)[C@@H](C)C(=O)C(C)(C)C(=O)OC[C@H]1[C@H](O)CCO` [Compound 200, (3S,6R,8R,9R,10R)-3-((R)-1,3-dihydroxypropyl)-9-(((2S,3R,4S,6R)-4-(dimethylamino)-3-hydroxy-6-methyltetrahydro-2H-pyran-2-yl)oxy)-4-ethyl-8-methoxy-6,8,10,12,12-pentamethyl-1-oxa-4-azacyclotridecane-11,13-dione], the MIC with S. aureus MP-12 was more than 32 µg/mL; against E. coli MP-4, 4 to 32 µg/mL (≈ 6.79 to 54.3 µM); with K. pneumoniae MP-648, more than 32 µg/mL; against P. aeruginosa MP-3 it was more than 32 µg/mL; in the experiment on A. baumannii MP-15 it was more than 32 µg/mL.

`CCN1CCN(C[C@H]2COC(=O)C(C)(C)C(=O)[C@H](C)[C@@H](O[C@@H]3O[C@H](C)C[C@H](N(C)C)[C@H]3O)[C@](C)(OC)C[C@@H](C)CN2CC)CC1` [Compound 158, (3S,6R,8R,9R,10R)-9-(((2S,3R,4S,6R)-4-(Dimethylamino)-3-hydroxy-6-methyltetrahydro-2H-pyran-2-yl)oxy)-4-ethyl-3-((4-ethylpiperazin-1-yl)methyl)-8-methoxy-6,8,10,12,12-pentamethyl-1-oxa-4-azacyclotridecane-11,13-dione]: the MIC in the experiment on S. aureus MP-12 was 4 to 32 µg/mL (≈ 6.24 to 49.9 µM); in the experiment on E. coli MP-4 it was less than 4 µg/mL; in the experiment on K. pneumoniae MP-648 it was 4 to 32 µg/mL (≈ 6.24 to 49.9 µM); with P. aeruginosa MP-3, more than 32 µg/mL; with A. baumannii MP-15, more than 32 µg/mL.

On to `CCN1C[C@H](C)C[C@@](C)(OC)[C@H](O[C@@H]2O[C@H](C)C[C@H](N(C)C)[C@H]2O)[C@@H](C)C(=O)C(C)(C)C(=O)OC[C@H]1[C@H](O)CCN(C)CC(F)(F)F` [Compound 193, (3S,6R,8R,9R,10R)-9-(((2S,3R,4S,6R)-4-(dimethylamino)-3-hydroxy-6-methyltetrahydro-2H-pyran-2-yl)oxy)-4-ethyl-3-((R)-1-hydroxy-3-(methyl(2,2,2-trifluoroethyl)amino)propyl)-8-methoxy-6,8,10,12,12-pentamethyl-1-oxa-4-azacyclotridecane-11,13-dione], for which the MIC was more than 32 µg/mL in the experiment on S. aureus MP-12; 4 to 32 µg/mL (≈ 5.85 to 46.8 µM) in the experiment with E. coli MP-4; more than 32 µg/mL in the experiment with K. pneumoniae MP-648; more than 32 µg/mL in the experiment with P. aeruginosa MP-3; more than 32 µg/mL in the experiment with A. baumannii MP-15.

Consider `CO[C@]1(C)C[C@@H](C)CN(C)[C@H](/C=C/CN(C)Cc2ccc(F)cc2)COC(=O)C(C)(C)C(=O)[C@H](C)[C@H]1O[C@@H]1O[C@H](C)C[C@H](N(C)C)[C@H]1O` [Compound 195], for which the MIC with S. aureus MP-12 was 4 to 32 µg/mL (≈ 5.9 to 47.2 µM); against E. coli MP-4, less than 4 µg/mL; against K. pneumoniae MP-648 it was 4 to 32 µg/mL (≈ 5.9 to 47.2 µM); against P. aeruginosa MP-3, more than 32 µg/mL; in the experiment with A. baumannii MP-15, 4 to 32 µg/mL (≈ 5.9 to 47.2 µM).

Take `CO[C@]1(C)C[C@@H](C)CN(C)[C@H](CC2CCN(CCO)CC2)COC(=O)C(C)(C)C(=O)[C@H](C)[C@H]1O[C@@H]1O[C@H](C)C[C@H](N(C)C)[C@H]1O` [Compound 178]: the MIC was more than 32 µg/mL with S. aureus MP-12; less than 4 µg/mL in the experiment on E. coli MP-4; less than 4 µg/mL against K. pneumoniae MP-648; more than 32 µg/mL against P. aeruginosa MP-3; more than 32 µg/mL in the experiment with A. baumannii MP-15.

As to `CO[C@]1(C)C[C@@H](C)CN(C)[C@H]([C@](C)(O)CCN2CCCC2)COC(=O)C(C)(C)C(=O)[C@H](C)[C@H]1O[C@@H]1O[C@H](C)C[C@H](N(C)C)[C@H]1O` [Compound 227], the MIC in the experiment with S. aureus MP-12 was 4 to 32 µg/mL (≈ 6.23 to 49.9 µM); with E. coli MP-4, 4 to 32 µg/mL (≈ 6.23 to 49.9 µM); in the experiment on K. pneumoniae MP-648, more than 32 µg/mL; in the experiment on P. aeruginosa MP-3 it was more than 32 µg/mL; in the experiment with A. baumannii MP-15 it was more than 32 µg/mL.

In the case of `CO[C@]1(C)C[C@@H](C)CN(C)[C@@H](C(=O)N2CCN(CC(F)(F)F)CC2)[C@H](C)OC(=O)C(C)(C)C(=O)[C@H](C)[C@H]1O[C@@H]1O[C@H](C)C[C@H](N(C)C)[C@H]1O` [Compound 130, (2S,3R,6R,8R,9R,10R)-9-(((2S,3R,4S,6R)-4-(dimethylamino)-3-hydroxy-6-methyltetrahydro-2H-pyran-2-yl)oxy)-8-methoxy-2,4,6,8,10,12,12-heptamethyl-3-(4-(2,2,2-trifluoroethyl)piperazine-1-carbonyl)-1-oxa-4-azacyclotridecane-11,13-dione], the MIC with S. aureus MP-12, with E. coli MP-4, against K. pneumoniae MP-546, in the experiment with P. aeruginosa MP-3 and in the experiment with A. baumannii MP-15 was more than 32 µg/mL in each case.

For the molecule `CO[C@]1(C)C[C@@H](C)CN(C)[C@@H](CN2CCN(S(=O)(=O)N(C)C)CC2)[C@H](C)OC(=O)C(C)(C)C(=O)[C@H](C)[C@H]1O[C@@H]1O[C@H](C)C[C@H](N(C)C)[C@H]1O` [Compound 142, 4-(((2S,3S,6R,8R,9R,10R)-9-(((2S,3R,4S,6R)-4-(dimethylamino)-3-hydroxy-6-methyltetrahydro-2H-pyran-2-yl)oxy)-8-methoxy-2,4,6,8,10,12,12-heptamethyl-11,13-dioxo-1-oxa-4-azacyclotridecan-3-yl)methyl)-N,N-dimethylpiperazine-1-sulfonamide], the MIC is 4 to 32 µg/mL (≈ 5.56 to 44.4 µM) in the experiment with S. aureus MP-12; more than 32 µg/mL against E. coli MP-4; more than 32 µg/mL in the experiment with K. pneumoniae MP-546; more than 32 µg/mL with P. aeruginosa MP-3; more than 32 µg/mL in the experiment on A. baumannii MP-15.

On to `CO[C@]1(C)C[C@@H](C)CN(C)[C@H](CC2CCN(C(C)C)CC2)C(C)(C)OC(=O)C(C)(C)C(=O)[C@H](C)[C@H]1O[C@@H]1O[C@H](C)C[C@H](N(C)C)[C@H]1O` [Compound 47], for which the MIC in the experiment on S. aureus MP-12 is 4 to 32 µg/mL (≈ 5.99 to 47.9 µM); with E. coli MP-4, less than 4 µg/mL; with K. pneumoniae MP-546, 4 to 32 µg/mL (≈ 5.99 to 47.9 µM); in the experiment with P. aeruginosa MP-3, more than 32 µg/mL; in the experiment on A. baumannii MP-15 it was more than 32 µg/mL.

On to `CO[C@]1(C)C[C@@H](C)CN(C)[C@@H](CC2CCN(CC(C)(C)C)CC2)COC(=O)C(C)(C)C(=O)[C@H](C)[C@H]1O[C@@H]1O[C@H](C)C[C@H](N(C)C)[C@H]1O` [Compound 66], for which the MIC with S. aureus MP-12 is more than 32 µg/mL; against E. coli MP-4, 4 to 32 µg/mL (≈ 5.99 to 47.9 µM); in the experiment with K. pneumoniae MP-546, 4 to 32 µg/mL (≈ 5.99 to 47.9 µM); against P. aeruginosa MP-3, more than 32 µg/mL; in the experiment on A. baumannii MP-15 it was more than 32 µg/mL.

For `CCCN1CCC(C[C@@H]2COC(=O)C(C)(C)C(=O)[C@H](C)[C@@H](O[C@@H]3O[C@H](C)C[C@H](N(C)C)[C@H]3O)[C@](C)(OC)C[C@@H](C)CN2C)CC1` [Compound 42], the MIC is 4 to 32 µg/mL (≈ 6.25 to 50 µM) in the experiment with S. aureus MP-12; less than 4 µg/mL against E. coli MP-4; less than 4 µg/mL against K. pneumoniae MP-546; more than 32 µg/mL with P. aeruginosa MP-3; more than 32 µg/mL with A. baumannii MP-15.

Consider `C=C[C@@H]1COC(=O)C(C)(C)C(=O)[C@H](C)[C@@H](O[C@@H]2O[C@H](C)C[C@H](N(C)C)[C@H]2O)[C@](C)(OC)C[C@@H](C)CN1C` [Compound 14, (3R,6R,8R,9R,10R)-9-(((2S,3R,4S,6R)-4-(Dimethylamino)-3-hydroxy-6-methyltetrahydro-2H-pyran-2-yl)oxy)-8-methoxy-4,6,8,10,12,12-hexamethyl-3-vinyl-1-oxa-4-azacyclotridecane-11,13-dione], for which the MIC with S. aureus MP-12 was more than 32 µg/mL; in the experiment on E. coli MP-4, 4 to 32 µg/mL (≈ 7.59 to 60.8 µM); in the experiment with K. pneumoniae MP-546, 4 to 32 µg/mL (≈ 7.59 to 60.8 µM); against P. aeruginosa MP-3 it was more than 32 µg/mL; with A. baumannii MP-15, more than 32 µg/mL.
